{
  "source": "patent US12310970B2",
  "about": "“Compounds and methods for treating or preventing anterior segment ocular disorders and/or retinal degenerations” (YALE UNIVERSITY, priority 2018, dated 2025)",
  "key": {"[1]": {"system": "corneal endothelial cells", "assay": "TBHP-induced cell death in corneal endothelial cells", "type": "cell-based, cow", "conditions": "corneal endothelial cells (FIG. 18); 0.9 μM 24 h, then 300 μM TBHP 24 h", "experimental": "Immortalized cow corneal endothelial cells (CRL-2048) obtained from the American Type Culture Collection (ATCC, Manassas, VA, USA) were cultured in Dulbecco's modified Eagle's medium (DMEM; Thermo Fisher Scientific, Waltham, MA) containing 10% fetal bovine serum (FBS), 100 IU/mL penicillin, 100 μg/mL streptomycin, 100 μg/mL gentamicin, and 2.5 μg/mL amphotericin B (Thermo Fisher Scientific). Human ARPE-19 cells were plated in 96-well plates for 24 hours in DMEM supplemented with FBS and antibiotics. ARPE-19 cells were preincubated with either ciclopirox olamine (Sigma), compound 414 (Chemical Diversity, San Diego, CA), compound 434 (Chemical Diversity) or no compound for 24 hours and then exposed to varying concentrations of tert-butyl hydroperoxide (TBHP; Sigma-Aldrich, St. Louis, MO) the next day for 24 hours. Cell viability was measured the following day by […] cell viability assay (Promega, Madison, WI) using a BioTek FLX800TM fluorescence reader (BioTek Winooski, VT). […] Protective effect of 0.9 μMciclopirox olamine on lens epithelial cells exposed to 300 μMTBHP."}, "Human ARPE-19 cells": {"system": "Human ARPE-19 cells", "assay": "Expression of oxidative stress and apoptosis related genes after TBHP", "type": "cell-based", "conditions": "0.9 μM 24 h preincubation, 300 μM TBHP 24 h", "experimental": "FIG. 2 depicts the gene expression pattern of oxidative stress related genes after tert-butyl hydroperoxide-induced cell death. Human ARPE-19 cells were preincubated ciclopirox olamine (0.9 μM) for 24 hours and then exposed to 300 μM tert-butyl hydroperoxide (TBHP) for 24 hours. […] FIG. 3 depicts apoptotic gene expression patterns after oxidative stress-induced cell death in human retinal pigment epithelial (RPE) cells. Human ARPE-19 cells were preincubated with ciclopirox olamine for 24 hours and then exposed to 300 μM tert-butyl hydroperoxide (TBHP) for 24 hours. […] The expression levels of genes related to oxidative stress were identified after exposure to TBHP for 24 hours (FIG. 2)."}, "[2]": {"system": "Human iPSC-derived RPE cells", "assay": "Mitochondrial respiration (Seahorse XF) after TBHP in iPSC-derived RPE", "type": "cell-based"}},
  "note": "Structures can show the parent of a compound that is named as a salt.",
  "data": [
    {"smiles": "Cc1cc(C2CCCCC2)n(O)c(=O)c1", "note": "[ciclopirox olamine, 6-cyclohexyl-1-hydroxy-4-methyl-2(1H)-pyridone, ethanolamine salt, reference compound]", "values": [
      {"measurement": "cell viability after exposure to TBHP", "setting": "[1]", "result": "significantly increases cell viability"},
      {"measurement": "expression of genes related to anti-oxidative stress", "setting": "Human ARPE-19 cells", "result": "elevated"},
      {"measurement": "expression of genes related to oxidative stress", "setting": "Human ARPE-19 cells", "result": "reduced"},
      {"measurement": "gene expression of Bax", "setting": "Human ARPE-19 cells", "result": "reduced"},
      {"measurement": "gene expression of caspase 8", "setting": "Human ARPE-19 cells", "result": "reduced"},
      {"measurement": "mitochondrial function, treatment alone", "setting": "[2]; iPSC-derived RPE treated with ciclopirox olamine alone", "result": "improved"},
      {"measurement": "protection from oxidative stress-induced cell death", "setting": "[2]; iPSC-derived RPE, TBHP 24 h", "result": "protects"}
    ]}
  ]
}
